Reference: patent publication US20250206789A1, “ZINC FINGER DEGRON SEQUENCES” (STICHTING HET NEDERLANDS KANKER INSTITUUT-ANTONI VAN …, priority 2022, published 2025)

Assays:
[1] = system: multiple myeloma patients; details: high-dose (25 mg per day) cohort; cited from earlier work
[2] = system: Primary human T cells; assay: Cytokine production and degranulation of CDK4 TCR T cells with Zap70-PD1-degron CRASH-IT switch co-cultured with NKIRTIL006 melanoma cells, thalidomide titration; format: cell-based; details: as compared to single hybrid, dual zinc finger prior art degron; IFNγ, IL2, TNFα, LAMP-1
From the text: FIG. 1: Sensitivity of zinc finger degrons to IMiD can be improved by alteration of the second zinc finger sequence. (A) Schematic representation of a panel of zinc finger degrons containing the ZFP91 ZF4 beta hairpin and IKZF1 ZF2 alpha helix as a hybrid first zinc finger. […] (B-E) Primary human T cells modified with the HLA class I restricted CDK4 TCR plus a Zap70-PD1-degron CRASH-IT switch, in which the degron sequence is selected from (A), were pretreated with indicated concentrations of thalidomide. Data depict intracellular IFNγ, IL2, TNFα, and cell surface LAMP1 expression of CDK4 TCR+, EGFP high, CD8+ T cells upon co-culture with NKIRTIL006 melanoma cells in the continued presence of indicated concentrations of thalidomide. Error bars represent standard deviation (n=2). Data are representative of two independent experiments.
To our knowledge, the possibility of using a hybrid zinc finger as the second zinc finger as a means to improve the overall sensitivity of the dual zinc finger degron system was not tested before. To investigate whether the second zinc finger (IKZF1 ZF3) of the single hybrid, dual zinc finger prior art degron can be replaced with other zinc finger sequences while preserving or improving sensitivity towards IMiDs, we created a panel of CRASH-IT switches containing the zinc finger degrons shown in FIG. 1. […]

[3] = biological target: IMID/CRBN E3 ligase complex (Homo sapiens, UniProt Q96SW2); details: as compared to non-hybrid ZFP91 ZF4 and IKZF1 ZF2 zinc finger degrons; cited from earlier work
IMID/CRBN E3 ligase complex, sequence (Q96SW2 whole entry, one chain of several): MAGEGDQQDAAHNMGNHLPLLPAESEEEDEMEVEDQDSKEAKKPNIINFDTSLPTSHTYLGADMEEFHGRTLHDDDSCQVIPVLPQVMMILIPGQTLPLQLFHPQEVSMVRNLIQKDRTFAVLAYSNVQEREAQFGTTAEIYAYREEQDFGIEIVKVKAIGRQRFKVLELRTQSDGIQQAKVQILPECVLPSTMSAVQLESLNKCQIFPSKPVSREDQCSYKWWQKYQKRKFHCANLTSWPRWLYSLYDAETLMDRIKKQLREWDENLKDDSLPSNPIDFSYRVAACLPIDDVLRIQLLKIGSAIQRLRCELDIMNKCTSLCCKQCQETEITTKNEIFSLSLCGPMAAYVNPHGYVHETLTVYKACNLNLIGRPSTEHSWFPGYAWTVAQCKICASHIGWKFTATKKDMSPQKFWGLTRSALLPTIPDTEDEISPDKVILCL

[4] = system: Jurkat cells; assay: SynFinger library screen: CD69 expression of CRASH-IT (Zap70-PD1-degron) transduced Jurkat cells with or without lenalidomide, enrichment index from NGS reads; format: cell-based; design: key to EI / EI index (enrichment index): enrichment index; low EI = SynFinger with desired properties
From the text: […] Jurkat cells were transduced with the SynFinger library (SynFinger containing CRASH-IT switches) at a 12.8% transduction efficiency and sorted for high EGFP expression to enrich transduced cells. For quality control of the SynFinger transduced Jurkat cells, SynFinger sequences were amplified and analyzed by NGS. 10 randomly selected SynFinger encoding DNA sequences or DNA sequences encoding the same SynFinger amino acid sequences but contain 2 nucleotide mismatches due to alternative codon usage were used to assess ability to distinguish true SynFinger sequences from noise in the NGS data. 10/10 SynFinger encoding full-nucleotide sequence match sequences were observed within NGS data whereas the 2 nucleotide mismatch containing sequences were not detected.
Jurkat cells expressing the SynFinger library were treated with 50 nM lenalidomide (a suboptimal dose that activates only ˜50% of cells expressing a CRASH-IT switch containing the parental double hybrid degron in Jurkat cells, as compared to a maximally effective 1000 nM lenalidomide dose) or were mock treated for 24 hours, and subsequently activated with anti-CD3/anti-CD28 antibodies in the presence or absence of 50 nM lenalidomide for 5 hours. Afterwards, cells were stained with IR dye (1:400) and anti-CD69-PE (1:200). Cells were sorted for live (IR dye negative), EGFP high end CD69 high (top 5%) or CD69 low (bottom 5%) expression using Aria Fusion cytometers.
Subsequently, cells were washed with PBS, and cell pellets were frozen at −20° C. until DNA extraction. Genomic DNA was isolated using the DNeasy Blood & Tissue Kit (Qiagen) according to the manufacturer's instructions, using 5×10^6 cells per column. DNA was eluted in 22 μl RNAse free water. Deep sequencing adapters and indexes were added to SynFinger encoding DNA sequences using PCR amplification. Briefly, 3 μg genomic DNA (20 μl), indexed forward and reverse primers (10 μM, 2.5 μl each) and 25 μl NEBNext® High-Fidelity 2×PCR Master Mix were added to the PCR reaction. An optimized PCR reaction (98° C. for 30 s, (98° C. for 10 s, 56° C. for 10 s, 72° C. for 5 s)×25 cycles, 72° C. for 3 min was performed using Eppendorf PCR cyclers.
Indexed PCR products were run on agarose gel, relative DNA concentrations were estimated by measuring band intensity, and 12 indexed PCR reaction products were mixed per MiSeq chip. To increase sequence diversity, samples were mixed with 25% PhiX DNA. In total, 2 MiSeq chips were used (100 bp, single read). To distinguish genuine SynFinger sequences from sequencing errors, results were filtered using a reference list of actual sequences used in SynFinger library design (100% codon match). Sequences with a very low number of reads (sum of all samples below 500 reads) were excluded from analysis.
To identify SynFingers that improve sensitivity of CRASH-IT switches towards lenalidomide while preserving or improving stringency of switch mediated control of T cell activation in the absence of lenalidomide, an enrichment index (EI) value was calculated for each sequence as described below, and SynFingers were ranked according to their EI, with a low EI indicating a SynFinger with desired properties.
CD69-HI and […] read counts from top 100 SynFingers were compared with read counts from the parental double hybrid degron using a two-sided Fisher's exact test to determine enrichment of CD69-HI cells in the presence of lenalidomide and enrichment of CD69-LO cells in the absence of lenalidomide.
To further improve the sensitivity of double hybrid degron towards IMiDs, we performed a high throughput screen using a library of ˜50,200 CRASH-IT variants that encode either single or double amino acid substitutions at the indicated positions of the first hybrid zinc finger sequence, thereby changing 18 amino acids of this zinc finger into any amino acid except cysteine (FIG. 3). […]

[5] = system: Primary human T cells; assay: Cytokine production and degranulation of CDK4 TCR T cells with Zap70-Siglec11-degron CRASH-IT switch co-cultured with NKIRTIL006 melanoma cells, lenalidomide; format: cell-based; details: for cytokine production at very low lenalidomide concentration: 5 nM lenalidomide, as compared to double hybrid degron containing CRASH-IT switch
From the text: FIG. 5: SynFingers fusion proteins enable sensitive control of immune cell functions. A subset of SynFingers identified in the SynFinger library screen were individually validated. (A-H) Primary human T cells were modified with the HLA class I restricted CDK4 TCR plus a Zap70-Siglec11-degron CRASH-IT switch, in which the degron sequence contains the parental zinc finger degron (double hybrid degron depicted in FIGS. 1 and 3), or the parental zinc finger degron with the following mutations: G14N/K21A, G14M/N15R, L17I/K21L, E4R/Q12L, Q12R/K13T, or Q12R/K13V. As a control, primary human T cells modified with the HLA class I restricted CDK4 TCR plus vector control were used. Cells were pretreated with 5 nM lenalidomide or left untreated. Data depict intracellular IFNγ, IL2, TNFα, and cell surface LAMP1 expression of CDK4 TCR+, EGFP intermediate, CD8+ T cells upon co-culture with NKIRTIL006 melanoma cells in the continued absence (E-H) or continued presence of 5 nM lenalidomide (A-D). Dashed horizontal lines indicate cytokine production and degranulation levels of cells modified with a CRASH-IT switch containing the parental zinc finger degron. Error bars represent standard deviation (n=2). SynFinger and vector control groups were compared to the parental zinc finger group using a one-sided t test: *=p<0.05, **=p<0.01, ***=p<0.001, ****=p<0.0001, n.s.=not significant. Data are representative of two independent experiments.
FIG. 6: SynFinger containing CRASH-IT switches enable restoration of cytokine production and degranulation at lower IMID concentrations as compared to zinc finger degrons not according to the invention. (A-D) Primary human T cells modified with the HLA class I restricted CDK4 TCR plus a Zap70-Siglec11-degron CRASH-IT switch, in which the degron sequence contains prior art zinc finger degrons (single hybrid, dual zinc finger degron depicted in FIG. 1), the parental zinc finger degron (double hybrid degron depicted in FIGS. 1 and 3), or the parental zinc finger degron with the following mutations: G14N/K21A, L17I/K21L, or Q12R/K13V, were pretreated with the indicated concentrations of lenalidomide or left untreated. Data depict intracellular IFNγ, IL2, TNFα, and cell surface LAMP1 expression of CDK4 TCR+, EGFP intermediate, CD8+ T cells upon co-culture with NKIRTIL006 melanoma cells in the continued presence or absence of the indicated concentration of lenalidomide (A-D). Error bars represent standard deviation (n=3). Data are representative of two independent experiments. (E) Table depicts EC50Lenalidomide (nM) values of cells in (A-D), and EC50 fold change between the prior art zinc finger degron and a SynFinger containing the Q12R/K13V substitutions.
FIG. 7: Combination of dual substitution sets can further increase lenalidomide sensitivity of SynFinger degron. (A-D) Primary human T cells modified with the HLA class I restricted CDK4 TCR plus a Zap70-Siglec11-degron CRASH-IT switch, in which the degron sequence contains the parental zinc finger degron (double hybrid degron depicted in FIGS. 1 and 3), or the parental zinc finger degron with the following mutations: G14N/K21A, Q12R/K13V, or Q12R/K13V/G14N/K21A, were pretreated with the indicated concentrations of lenalidomide or left untreated. Data depict intracellular IFNγ, IL2, TNFα, and cell surface LAMP1 expression of CDK4 TCR+, EGFP intermediate, CD8+ T cells upon co-culture with NKIRTIL006 melanoma cells in the continued presence or absence of the indicated concentration of lenalidomide (A-D). Error bars represent standard deviation (n=3). Data are representative of two independent experiments.
To test whether the SynFingers that show an improved drug sensitivity in this Jurkat SynFinger library screen also led to an improved sensitivity to low IMID concentrations when expressed in primary human T cells, human peripheral blood T cells were modified to express the CDK4 TCR and indicated SynFinger containing CRASH-IT switch variants (FIG. 5). […]

Q: Which “toxicity in maintenance therapy” value [1] does the source give for `Nc1cccc2c1CN(C1CCC(=O)NC1=O)C2=O` (stereo not drawn) [lenalidomide] here?
A: dose reductions due to toxicity, in particular neutropenia, were frequent

Q: Which results are given for “LQCEICGFTCRQKGNLLRHIKLH [single hybrid, single zinc finger degron, ZFP91 ZF4 beta hairpin-IKZF1 ZF2 alpha helix, no second zinc finger, reference compound]”?
A: sensitivity of the CRASH-IT switch towards thalidomide [2]: reduced thalidomide sensitivity; sensitivity towards IMiD induced degradation [3]: increase sensitivity

Q: Which “cells activated at 50 nM lenalidomide as compared to maximally effective 1000 nM lenalidomide dose” value ([4]; Jurkat cells expressing CRASH-IT switch, 50 nM lenalidomide) does the source give for “LQCEICGFTCRQKGNLLRHIKLHSGEKPFKCHLCNYACRRKDSVVAHKAKSH [double hybrid degron, ZFP91 ZF4 beta hairpin-IKZF1 ZF2 alpha helix plus IKZF1 ZF3 beta hairpin-ZFP91 ZF5 alpha helix]” here?
A: ~50%

Q: What about the “sensitivity of the CRASH-IT switch towards thalidomide” value [2] of the same compound?
A: improved the sensitivity

Q: What does the source list for LQCEICGFTCRRVGNLLRHIKLH [SEQ ID NO: 9]?
A: EI ([4]; Jurkat SynFinger screen): 0.006877; cytokine production at very low lenalidomide concentration [5]: improved cytokine production

Q: Which “sensitivity of the SynFinger towards lenalidomide” value ([5]; as compared to SynFinger degrons with Q12R/K13V or G14N/K21A) does the source give for “LQCEICGFTCRRVNNLLRHIALH [Q12R/K13V/G14N/K21A, SynFinger degron with quadruple substitutions]” here?
A: improved the sensitivity

Q: Which “cytokine production at very low lenalidomide concentration” value [5] does the source give for LQCRICGFTCRLKGNLLRHIKLH [SEQ ID NO: 1] here?
A: improved cytokine production
